# Measurements reported in patent publication US7488758B2 (Teva Pharmaceutical Fine Chemicals, S.r.l., priority 2004, dated 2009).
# Like-named read-outs stand apart in the source and are kept apart here.
# Conditions: for water content: after exposure at about 100% relative humidity for one week, hydrochloride; for water absorption, outcome in words: one-week exposure at 100% relative humidity; for LOD (%) (water content by TGA) / Polymorph by XRD: one week exposure
# Procedure: After each exposure the water content was determined by Thermal Gravimetric Analysis (TGA) and reported as loss on drying (LOD) as a weight percentage and the crystal structure was determined by X-ray Diffraction (XRD).
# The X-Ray diffraction (XRD) analysis was conducted using an ARL X-Ray powder diffractometer (model X'TRA-030) equipped with a Peltier detector, round standard aluminum sample holder with round zero background, and quartz plate. The scanning parameters were from a range of about 2-40 degree two θ (±0.2 degrees) and a continuous scan at a rate of about 3 degrees/min.
# Thermal Gravimetric Analysis (TGA) was conducted using a Mettler Toledo TGA/SDTA 851^e using a sample weight of about 7-15 mg, a heating rate of about 10° C. min. under a N2 stream at a N2 flow rate of about 50 ml/min. The samples were scanned at a range between about 30° C. to about 250° C.
Structure (SMILES),water content,"water absorption, outcome in words",LOD (%) (water content by TGA) (RH 0%),LOD (%) (water content by TGA) (RH 20%),LOD (%) (water content by TGA) (RH 40%),LOD (%) (water content by TGA) (RH 60%),LOD (%) (water content by TGA) (RH 80%),Polymorph by XRD (RH 80%),LOD (%) (water content by TGA) (RH 100%),Polymorph by XRD (RH 100%)
"CC(C)(C)NC[C@H](O)c1ccc(O)c(CO)c1.Cl [Polymorph A, (R)-α^1-[[(1,1-dimethylethyl)amino]methyl]-4-hydroxy-1,3-benzenedimethanol hydrochloride, reference compound]",about 34%,absorbed sufficient water to dissolve the polymorph,–,–,–,–,–,–,–,–
"CC(C)(C)NC[C@H](O)c1ccc(O)c(CO)c1.Cl [Polymorph B, (R)-α^1-[[(1,1-dimethylethyl)amino]methyl]-4-hydroxy-1,3-benzenedimethanol hydrochloride]",about 36%,absorbed sufficient water to dissolve the polymorph,0.21,0.25,0.25,0.30,0.48,A >> B,36.0,only Polymorph A was detected
